# Measured values from BindingDB's records for doi:10.1016/j.bmcl.2014.05.074 (Seoul National University, 2014).
# Target: Transient receptor potential cation channel subfamily V member 1 (Homo sapiens, UniProt Q8NER1)
# Test: Antagonist activity at human TRPV1 expressed in CHO cells assessed as inhibition of capsaicin-induced increase in intracellular Ca2+ level by FLIPR assay
# Sequence of Transient receptor potential cation channel subfamily V member 1 (Q8NER1 whole entry): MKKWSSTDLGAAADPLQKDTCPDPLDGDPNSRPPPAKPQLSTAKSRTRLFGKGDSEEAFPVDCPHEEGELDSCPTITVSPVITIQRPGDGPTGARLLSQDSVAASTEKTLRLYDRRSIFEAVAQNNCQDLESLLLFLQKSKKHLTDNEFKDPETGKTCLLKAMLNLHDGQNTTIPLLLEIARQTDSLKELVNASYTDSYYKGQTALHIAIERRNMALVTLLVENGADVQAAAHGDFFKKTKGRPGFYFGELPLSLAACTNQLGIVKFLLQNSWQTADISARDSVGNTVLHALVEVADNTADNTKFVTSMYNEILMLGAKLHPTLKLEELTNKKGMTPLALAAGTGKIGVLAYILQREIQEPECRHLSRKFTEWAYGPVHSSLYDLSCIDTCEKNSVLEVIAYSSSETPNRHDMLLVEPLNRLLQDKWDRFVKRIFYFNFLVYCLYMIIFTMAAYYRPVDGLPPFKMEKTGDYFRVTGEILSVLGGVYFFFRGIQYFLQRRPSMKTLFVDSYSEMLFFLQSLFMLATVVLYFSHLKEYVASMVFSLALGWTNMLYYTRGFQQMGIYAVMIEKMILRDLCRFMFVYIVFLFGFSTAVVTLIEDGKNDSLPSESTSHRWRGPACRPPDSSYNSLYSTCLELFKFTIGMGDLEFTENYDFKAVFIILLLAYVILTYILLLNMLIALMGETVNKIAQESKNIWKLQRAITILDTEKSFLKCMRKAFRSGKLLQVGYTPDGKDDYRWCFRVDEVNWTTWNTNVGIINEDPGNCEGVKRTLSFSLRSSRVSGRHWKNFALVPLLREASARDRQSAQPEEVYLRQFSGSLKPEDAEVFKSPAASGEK
row,Ki,Structure (SMILES)
1,100 pM,CC(C(=O)NCc1ccc(C(F)(F)F)nc1C1=C[C@H](C)CCC1)c1ccc(NS(C)(=O)=O)c(F)c1 (stereo partly drawn)
2,300 pM,CC1CC=C(c2nc(C(F)(F)F)ccc2CNC(=O)C(C)c2ccc(NS(C)(=O)=O)c(F)c2)CC1 (stereo not drawn)
3,100 pM,CCC1CC=C(c2nc(C(F)(F)F)ccc2CNC(=O)C(C)c2ccc(NS(C)(=O)=O)c(F)c2)CC1 (stereo not drawn)
